According to patent US20170100493A1, “RECEPTOR IMAGING SYSTEMS AND RELATED METHODS” (The General Hospital Corporation, priority 2015, published 2017):
Read-outs that look alike come from different tables or passages of the source. Values belong to the compound of their own block, whether it stands above or below them.

Tests used:
D2/D3 receptors [1] = biological target: T1, D2/D3 receptors (Macaca mulatta, UniProt F7CYH8); conditions: for DBPND^peak / Peak Occ. θ^peak / BP^(0): putamen ROI, animal M1; for BP^(0): baseline [11C]raclopride binding potential
T1 sequence (F7CYH8 1-443): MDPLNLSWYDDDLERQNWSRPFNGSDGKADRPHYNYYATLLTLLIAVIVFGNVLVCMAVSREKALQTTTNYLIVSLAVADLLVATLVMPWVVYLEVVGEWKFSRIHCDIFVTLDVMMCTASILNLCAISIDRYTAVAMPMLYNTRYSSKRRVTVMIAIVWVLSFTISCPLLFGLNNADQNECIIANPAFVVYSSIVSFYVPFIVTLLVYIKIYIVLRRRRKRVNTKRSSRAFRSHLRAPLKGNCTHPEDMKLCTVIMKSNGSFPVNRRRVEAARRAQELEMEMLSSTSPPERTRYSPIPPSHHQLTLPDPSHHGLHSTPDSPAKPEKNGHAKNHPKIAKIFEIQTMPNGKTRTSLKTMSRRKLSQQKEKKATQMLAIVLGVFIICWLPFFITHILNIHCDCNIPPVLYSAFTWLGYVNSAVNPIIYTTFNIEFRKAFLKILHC
Description: (§1) Two animals (male rhesus macaques: M1 (8 years) and M2 (6 years)) underwent PET/MR imaging. For each study, the animal was anesthetized, initially with 10 mg/kg ketamine and 0.5 mg/kg xylazene, and maintained with isoflurane (1%, mixed with oxygen) after intubation.
(§2) [^11C]Raclopride was injected using a bolus+infusion protocol. […] Boluses were administered by hand over a duration of 30 seconds, after which infusion at a rate of 0.01 ml/s was started with an automatic pump (Medrad Spectra Solaris). Specific activities at time of injection were 3.7±2.8 mCi/nmol. […] Experiments and repeated administration of pharmacological challenges in all NHPs were separated by at least 2 weeks, so that results were not influenced from prior history. […] Additionally, the D2 antagonist prochlorperazine was injected at doses 0.1 and 0.2 mg/kg in animal M2 to serve as a direct comparison to the agonists, and to investigate whether the temporal relationship between occupancy and function that was reported for the short-acting antagonist raclopride (10) was maintained for an antagonist with much longer duration of action.
(§3) Simultaneous PET and MR data were acquired on a prototype scanner that includes a BrainPET insert and a Tim Trio 3T MR scanner (Siemens AG, Healthcare Sector, Erlangen Germany). A custom-built tight-fitting PET compatible 8-channel NHP receive array (34) together with a vendor-supplied local circularly polarized transmit coil was used for MR imaging.
PET emission data were acquired in list-mode format for 100 min starting with radiotracer injection. Images were reconstructed with a 3D Poisson ordered-subset expectation maximization algorithm using prompt and variance-reduced random coincidence events. Normalization, scatter and attenuation sinograms (including attenuation of the radiofrequency coil) were included in the reconstruction (37). […] Framing intervals were 10×30 sec, followed by 1 min frames.
(§4) PET and MR data were registered to the Saleem-Logothetis stereotaxic space (38) with an affine transformation (12 degrees of freedom) using a multi-subject MRI template (39), in which standard regions of interest (ROI) were defined based on anatomy. Alignment of the EPI data used an affine transformation plus local distortion fields. After motion-correcting using AFNI software (40), and after spatially smoothing fMRI data with a 2.5 mm Gaussian kernel, statistical analysis was carried out using the general linear model (GLM). The temporal response to the drug injection was modeled with a gamma-variate function, in which the time-to-peak was adjusted to minimize the χ^2/DOF of the GLM fit to the data. […] Additionally, regressors that correspond to translations in three dimensions and were derived from motion correction were used in the GLM analysis. The resulting signal changes were then converted to percentage changes in CBV by standard methods (41).
PET kinetic modeling employed a general linear model formulation of the simplified reference tissue model (SRTM) (14), with cerebellum as the reference ROI, and the rate constant (k2) for cerebellum derived from the high-binding region putamen using a 2-parameter SRTM model (42).

D2/D3 receptors [2] = biological target: T1, D2/D3 receptors; conditions: for Peak CBV: putamen ROI, animal M1
Description: as §1, §2, §3
The phased array enabled 2-fold acceleration with GRAPPA (35) in the anterior-posterior direction. […] To improve fMRI detection power, ferumoxytol (Feraheme, AMAG Pharmaceuticals, Cambridge Mass.) was injected at 10 mg/kg prior to fMRI (36).
as §4

D2/D3 = conditions: reported (ref 19); cited from earlier work
D2/D3 receptors [3] = biological target: T1, D2/D3 receptors; conditions: mean±std over doses; model fit to experimental data
Description: The process of receptor desensitization and internalization can be considered in a dynamic occupancy model. In an example of a dynamic occupancy model, the following are assumed: • i. The externalization constant kext is very long, and is thus negligible for timescales <2 h. • ii. Once internalized, receptors can be bound with an affinity α by the PET radiotracer. […] The rate to convert desensitized to internalized receptors is negligible with respect to the relevant experimental timescales.
The concentrations of the free ligand and free DA can both be normalized to the baseline DA occupancy at time zero, such that f describes the fraction of free concentration (relative to baseline DA). The parameter θint describes the fraction of internalized receptors and kDI denotes the desensitization and internalization rate constant. The above equations, plus the measurement models for PET and fMRI are a full description of the RDI model employed in this study for simulation and parameter estimation.
The RDI model was used to generate a family of CBV curves for RDI rates in the range of 1 min to 30 min. An estimate of the RDI constant for each dataset was then achieved by minimizing the residual norm between the model and data after drug injection.

D3 = conditions: cited from earlier work
D2 = conditions: cited from earlier work

- occupancy at CBV peak magnitude (D2/D3 receptors [1]; animal M2): 88%
- CBV response peak magnitude (D2/D3 receptors [2]; at 88% occupancy, animal M2): 14.4%
SMILES: CN1CCN(CCCN2c3ccccc3Sc3ccc(Cl)cc32)CC1 [prochlorperazine]
- CBV and occupancy timecourses compared (D2/D3 receptors [2]; animal M2, FIG. 4 graph (c)): CBV and occupancy timecourses were matched

- time at which PET occupancy peaked (D2/D3 receptors [1]; animal M2, FIG. 4): 17.8 min
- DBPND^peak (D2/D3 receptors [1]; 0.1 mg/kg): 4.7
- Peak Occ. θ^peak (D2/D3 receptors [1]; 0.1 mg/kg): 7%
- DBPND^peak (D2/D3 receptors [1]; 0.3 mg/kg): 2.9
- Peak Occ. θ^peak (D2/D3 receptors [1]; 0.3 mg/kg): 49%
- BP^(0) (D2/D3 receptors [1]; 0.1 mg/kg session): 5.1
- BP^(0) (D2/D3 receptors [1]; 0.3 mg/kg session): 5.7
- CBV timecourse peak time after the injection (D2/D3 receptors [2]; 0.1 mg/kg, animal M2): 4.0 min
- duration of CBV response in caudate (D2/D3 receptors [2]; 0.1 mg/kg, animal M2): 28.5 min
- CBV timecourse peak time after the injection (D2/D3 receptors [2]; 0.3 mg/kg, animal M2): 3.4 min
- duration of CBV response in caudate (D2/D3 receptors [2]; 0.3 mg/kg, animal M2): 25.0 min
- CBV^peak signal (D2/D3 receptors [2]; animal M2, FIG. 4 comparison of agonists): −8.5%
- Peak CBV (D2/D3 receptors [2]; 0.1 mg/kg): −6.6%
- Peak CBV (D2/D3 receptors [2]; 0.3 mg/kg): −9.7%
SMILES: CCCN(CCC)CCc1cccc2c1CC(=O)N2 [ropinirole]
- potency compared to quinpirole (D2/D3): about seven times less potent
- 1/kDI, in vivo desensitization and internalization time constant (D2/D3 receptors [3]): 8.5 ± 2.1 min
- Kd (D3): 61 nM
- Kd (D2): 970 nM
